Like-named read-outs stand apart in the source and are kept apart here.
Experiments:
MDA-MB-436 w/o2 cells = assay: Cytotoxic action on MDA-MB-436 w/o2 cells that acquired resistance to conventional BRD4 degraders (WST-8, 96 hr); format: cell-based, human; settings: for IC50: MDA-MB-436 w/o2 cells, 96 hr; for resistance: IC50 in MDA-MB-436 w/o2 cells divided by IC50 in MDA-MB-436 cells; for resistance of MDA-MB-436 w/o2 cells to the substance (in words): MDA-MB-436 w/o2 versus MDA-MB-436 cells
Protocol: (§1) The cytotoxic action of the compound of the present invention against cancer cells that acquired resistance to conventional BRD4 protein degradation inducing agents was evaluated in vitro. In this experiment, ARV-771 (Proc Natl Acad Sci USA. volume 113, pages 7124-7129 (28 Jun. 2016)) and MZ1 (ACS Chem Biol. Volume 10, pages 1770-1777 (21 Aug. 2015)), in which a ligand for VHL and BRD4 protein inhibitor are linked, were used as a conventional BRD4 protein degradation inducing agent serving as a comparison control. Human breast cancer MDA-MB-436 cells and MDA-MB-436 cells that acquired resistance to conventional BRD4 protein degradation inducing agents (MDA-MB-436 w/o2 cells) were suspended in 10% FBS/RPMI1640, seeded in a 96 well plate and cultured at 5% CO2, 37° C. overnight. A test compound dissolved in DMSO was diluted with 10% FBS/RPMI1640 and added and the cells were further cultured for 96 hr. After culturing, the viable cell number was measured using a cell number measurement WST-8 kit (Kishida Chemical Co., Ltd.). As a control, the measurement was performed under conditions free of the test compound. The cytotoxic activity of the compound of the present invention against each cell is shown in IC50 value in Table 4. The IC50 value is a concentration of the compound showing 50% cell survival rate when the cell survival rate thereof under compound untreated condition is 100%. It was calculated from the straight line connecting the cell survival rate at two points enclosing the 50% cell survival rate and the compound concentration. In addition, the tolerance (fold) was calculated by dividing the IC50 value in MDA-MB-436 w/o2 cells by the IC50 value in MDA-MB-436 cells.

[1] = tested on: human prostate cancer LNCaP cells; assay: Cytotoxic action on LNCaP cells (WST-8, 96 hr); format: cell-based; settings: 96 hr culture
How it was run: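 Viability read by WST-8 after 96 hr compound exposure of cells seeded overnight in 10% FBS/RPMI1640 (37° C, 5% CO2). Survival normalised to compound-free wells as 100%; IC50 obtained by straight-line interpolation between the two concentrations flanking 50% survival.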

BRD4 protein [2] = molecular target: T1, BRD4 protein (Homo sapiens (Human), UniProt O60885); assay: Inhibitory action on binding of BRD4 protein and acetylated histone H4 (TR-FRET); settings: BRD4-1 (GST) and acetylated histone H4 peptide, 3 hr
Protocol: The inhibitory action of the compound of the present invention on the binding of BRD4 protein and a ligand thereof (acetylated histone H4) was evaluated by the time-resolved fluorescence resonance energy transfer (TR-FRET) method using EPIgeneous™ Binding Domain Kit A (Cisbio), BRD4-1 (GST) (Reaction Biology Corp) and [Lys(Ac)5/8/12/16]-Histone H4(1-21)-GGK (Biotin) (Eurogentec). In this experiment, (+)-JQ1 (Nature volume 468, pages 1067-1073 (23 Dec. 2010)) known to have an inhibitory activity on the binding of BRD4 protein and acetylated histone H4 therefor was used as a positive control drug. A test compound dissolved in DMSO was diluted with attached Diluent Buffer, added to a 384 well white plate, and BRD4-1 (GST) and [Lys(Ac)5/8/12/16]-Histone H4(1-21)-GGK (Biotin) were further added. Thereafter, Streptavidin-d2 conjugate and Anti-GST-Eu^3+ Cryptate Conjugate were added and the cells were incubated at room temperature for 3 hr. The binding amount of the BRD4 protein and acetylated histone H4 was measured as the fluorescence intensity (excitation: 314 nm/emission: 620 nm and excitation: 314 nm/emission: 665 nm). […] It was calculated from the straight line connecting the degradation rate at two points enclosing the 50% fluorescence intensity and the compound concentration.

BRD4 protein [3] = molecular target: T1, BRD4 protein; assay: BRD4 protein degradation inducing action in LNCaP cells (immunofluorescence, 6 hr); format: cell-based; settings: anti-BRD4 fluorescence intensity
How it was run: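 LNCaP cells in 10% FBS/RPMI1640 exposed to compound for 6 hr, fixed, permeabilized and immunostained for BRD4 with Alexa Fluor 546 secondary; fluorescence (ex 560, em 572 nm) read by imaging. DC50 = concentration giving 50% of untreated signal, interpolated linearly between the two bracketing points.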

[4] = tested on: Human breast cancer MDA-MB-436 cells; assay: Cytotoxic action on MDA-MB-436 cells (WST-8, 96 hr); format: cell-based
Protocol: as §1

BRD4 protein [5] = molecular target: T1, BRD4 protein; assay: BRD4 protein degradation inducing action in MDA-MB-436 w/o2 cells (Western blot, 6 hr); format: cell-based; settings: MDA-MB-436 w/o2 cell
Protocol: (§2) The BRD4 protein degradation inducing action of the compound of the present invention on the cancer cells that acquired resistance to conventional BRD4 protein degradation inducing agents was evaluated in vitro. In this experiment, ARV-771 and MZ1, in which a ligand for VHL and BRD4 protein inhibitor are linked, were used as a conventional BRD4 protein degradation inducing agent serving as a comparison control. Human breast cancer MDA-MB-436 cells and MDA-MB-436 cells that acquired resistance to conventional BRD4 protein degradation inducing agents (MDA-MB-436 w/o2 cells) were suspended in 10% FBS/RPMI1640, seeded in a 6 well plate and cultured at 5% CO2, 37° C. overnight. A test compound dissolved in DMSO was diluted with 10% FBS/RPMI1640 and added and the cells were further cultured for 6 hr. After culturing, the cells were lysed in a solubilizing solution (10 mM Tris-HCl, pH 7.4, 0.1% NP-40, 0.1% sodium deoxycholate, 0.1% SDS, 0.15 M NaCl, 1 mM EDTA, 10 μg/mL aprotinin). The solution was electrophoresed and proteins in acrylamide gel were transferred to Immobilon PVDF membrane using a semi-dry transfer device. […] After immersing in a secondary antibody solution for 1 hr, the object protein on the membrane was detected using ECL Prime Western Blotting Detection System or ECL Select Western Blotting Detection System (GE Healthcare).

BRD4 protein [6] = molecular target: T1, BRD4 protein; assay: BRD4 protein degradation inducing action in MDA-MB-436 cells (Western blot, 6 hr); format: cell-based; settings: MDA-MB-436 cell
Protocol: as §2

IC50 (BRD4 protein [2]) [nM]	DC50 (BRD4 protein [3]) [nM]	degradation of BRD4 protein (Western blot, FIG. 1) (BRD4 protein [5])	degradation of BRD4 protein (Western blot, FIG. 1) (BRD4 protein [6])	SMILES	IC50 (MDA-MB-436 w/o2 cells; Homo sapiens) [nM]	resistance (MDA-MB-436 w/o2 cells) [fold]	IC50 [1] [nM]	IC50 ([4]; Homo sapiens) [nM]	IC50 (MDA-MB-436 w/o2 cells) [nM]	resistance of MDA-MB-436 w/o2 cells to the substance (in words) (MDA-MB-436 w/o2 cells)	IC50 [4] [nM]
5.7	0.083			COC(=O)C[C@@H]1N=C(c2ccc(-c3ccc(C(=O)NCCc4ccc(S(=O)(=O)Nc5ccc(C)c6c(C#N)c[nH]c56)cc4)cc3)cc2)c2c(sc(C)c2C)-n2c(C)nnc21 [Example 11, methyl [(6S)-4-{4′-[(2-{4-[(3-cyano-4-methyl-1H-indol-7-yl)sulfamoyl]phenyl}ethyl)carbamoyl][1,1′-biphenyl]-4-yl}-2,3,9-trimethyl-6H-thieno[3,2-f][1,2,4]triazolo[4,3-a][1,4]diazepin-6-yl]acetate]	0.31	1.2	0.074	0.27			
		did not induce degradation	induced degradation of BRD4 protein	Cc1ncsc1-c1ccc(CNC(=O)[C@@H]2C[C@@H](O)CN2C(=O)[C@@H](NC(=O)COCCOCCOCCNC(=O)C[C@@H]2N=C(c3ccc(Cl)cc3)c3c(sc(C)c3C)-n3c(C)nnc32)C(C)(C)C)cc1 [MZ1, reference compound]		>26			> 50000	showed resistance	1900
		did not induce degradation	induced degradation of BRD4 protein	Cc1ncsc1-c1ccc([C@H](C)NC(=O)[C@@H]2C[C@@H](O)CN2C(=O)[C@@H](NC(=O)COCCCOCCNC(=O)C[C@@H]2N=C(c3ccc(Cl)cc3)c3c(sc(C)c3C)-n3c(C)nnc32)C(C)(C)C)cc1 [ARV-771, reference compound]		150			860	showed resistance	5.6

From patent US11890288B2, “Sulfonamide or sulfinamide compound having effect of inducing BRD4 protein degradation and pharmaceutical use thereof” (MITSUBISHI TANABE PHARMA CORPORATION, priority 2020, dated 2024)
